Source: US11053204B2, “Pyrimidinyloxy benzene derivatives as herbicides” (FMC Corporation, priority 2015, dated 2021)

Tests used:
Assay type in all cases: in vivo
[1] = system: Italian ryegrass (Lolium multiflorum); assay: Test A preemergence, visual injury rating; conditions: Lolium multiflorum, pre-emergence, 240 h, 0 to 100 scale (0 no effect, 100 complete control), read-out: Ryegrass, Italian plant response rating
How it was run: (§1)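 Pre- and postemergence greenhouse screen. Soil: loam + sand. Spray carrier: solvent mixture, non-phytotoxic, with surfactant. Post timing at 1–2 leaves, height 2–10 cm. Readout: visual injury on a 0–100 scale roughly 10 days after application, untreated plants as reference.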

[2] = system: barnyardgrass (Echinochloa crus-galli); assay: Test A preemergence, visual injury rating; conditions: Echinochloa crus-galli, pre-emergence, 240 h, 0 to 100 scale (0 no effect, 100 complete control), read-out: Barnyardgrass plant response rating
How it was run: as §1

[3] = system: giant foxtail (Setaria faberii); assay: Test A preemergence, visual injury rating; conditions: Setaria faberi, pre-emergence, 240 h, 0 to 100 scale (0 no effect, 100 complete control), read-out: Foxtail, Giant plant response rating
How it was run: as §1

[4] = system: kochia (Kochia scoparia); assay: Test A preemergence, visual injury rating; conditions: Bassia scoparia, pre-emergence, 240 h, 0 to 100 scale (0 no effect, 100 complete control), read-out: Kochia plant response rating
How it was run: as §1

[5] = system: pigweed (Amaranthus retroflexus); assay: Test A preemergence, visual injury rating; conditions: Amaranthus retroflexus, pre-emergence, 240 h, 0 to 100 scale (0 no effect, 100 complete control), read-out: Pigweed plant response rating
How it was run: as §1

[6] = system: ragweed (common ragweed, Ambrosia elatior); assay: Test A preemergence, visual injury rating; conditions: Ambrosia artemisiifolia, pre-emergence, 240 h, 0 to 100 scale (0 no effect, 100 complete control), read-out: Ragweed plant response rating
How it was run: as §1

[7] = system: barnyardgrass (Echinochloa crus-galli); assay: Test B flooded paddy test, plant response rating; conditions: Echinochloa crus-galli, 312 h; 250 g ai/ha; Flood; scale of 0 to 100 where 0 is no effect and 100 is complete control; 13 to 15 days
How it was run: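 Greenhouse pots flooded to 3 cm above soil at time of treatment received compound via the water, which stayed at that level.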

[8] = system: barnyardgrass (Echinochloa crus-galli); assay: Test C postemergence, plant response rating; conditions: Echinochloa crus-galli, post-emergence
How it was run: (§2)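 Greenhouse plants rated visually against untreated controls 13–15 d after treatment, scale 0 = no effect to 100 = complete control. Postemergence sprays went onto potted plants 2–18 cm tall (1–4 leaves); preemergence sprays onto soil freshly sown in loam–sand or silt loam, chemicals formulated in non-phytotoxic solvent with surfactant.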

[9] = system: blackgrass (Alopecurus myosuroides); assay: Test C postemergence, plant response rating; conditions: Alopecurus myosuroides, post-emergence
How it was run: as §2

[10] = system: corn (Zea mays); assay: Test C postemergence, plant response rating; conditions: Zea mays, post-emergence
How it was run: as §2

[11] = system: crabgrass, large (large crabgrass, Digitaria sanguinalis); assay: Test C postemergence, plant response rating; conditions: Digitaria sanguinalis, post-emergence
How it was run: as §2

[12] = system: galium (catchweed bedstraw, Galium aparine); assay: Test C postemergence, plant response rating; conditions: Galium, post-emergence
How it was run: as §2

[13] = system: kochia (Kochia scoparia); assay: Test C postemergence, plant response rating; conditions: Bassia scoparia, post-emergence
How it was run: as §2

[14] = system: morningglory (Ipomoea coccinea); assay: Test C postemergence, plant response rating; conditions: Ipomoea, post-emergence
How it was run: as §2

[15] = system: nutsedge, yellow (yellow nutsedge, Cyperus esculentus); assay: Test C postemergence, plant response rating; conditions: Cyperus, post-emergence
How it was run: as §2

[16] = system: oilseed rape (Brassica napus); assay: Test C postemergence, plant response rating; conditions: Brassica napus, post-emergence
How it was run: as §2

[17] = system: wheat (winter wheat, Triticum aestivum); assay: Test C postemergence, plant response rating; conditions: Triticum aestivum, post-emergence
How it was run: as §2

[18] = 62 g ai/ha, scale 0 to 100 (0 no effect, 100 complete control)
[19] = 125 g ai/ha, scale 0 to 100 (0 no effect, 100 complete control)

## O=C(OCCCC(F)(F)F)c1c(Br)cccc1Oc1ncc(Cl)cn1 [Compound 20, 4,4,4-trifluorobutyl 2-bromo-6-[(5-chloro-2-pyrimidinyl)oxy]benzoate]
[1]; 125 g ai/ha
  pest or weed control at 125 g/ha: 30%
[1]; 500 g ai/ha
  pest or weed control at 500 g/ha: 90%
[2]; 125 g ai/ha
  pest or weed control at 125 g/ha: 100%
[2]; 500 g ai/ha
  pest or weed control at 500 g/ha: 100%
[3]; 125 g ai/ha
  pest or weed control at 125 g/ha: 100%
[3]; 500 g ai/ha
  pest or weed control at 500 g/ha: 100%
[4]; 125 g ai/ha
  pest or weed control at 125 g/ha: 30%
[4]; 500 g ai/ha
  pest or weed control at 500 g/ha: 100%
[5]; 125 g ai/ha
  pest or weed control at 125 g/ha: 100%
[5]; 500 g ai/ha
  pest or weed control at 500 g/ha: 100%
[6]; 125 g ai/ha
  pest or weed control at 125 g/ha: 0%
[6]; 500 g ai/ha
  pest or weed control at 500 g/ha: 0%
[7]
  pest or weed control at 250 g/ha: 0%
[8]; 16 g ai/ha, scale 0 to 100
  pest or weed control at 16 g/ha: 10%
[8]; 31 g ai/ha, scale 0 to 100
  pest or weed control at 31 g/ha: 10%
[8]; [18]
  pest or weed control at 62 g/ha: 10%
[8]; [19]
  pest or weed control at 125 g/ha: 20%
[9]; 16 g ai/ha, scale 0 to 100
  pest or weed control at 16 g/ha: 5%
[9]; 31 g ai/ha, scale 0 to 100
  pest or weed control at 31 g/ha: 5%
[9]; [18]
  pest or weed control at 62 g/ha: 5%
[9]; [19]
  pest or weed control at 125 g/ha: 10%
[10]; 16 g ai/ha, scale 0 to 100
  Corn plant response rating (crop injury, 0 = no effect, 100 = complete kill) at 16 g/ha: 5%
[10]; 31 g ai/ha, scale 0 to 100
  Corn plant response rating (crop injury, 0 = no effect, 100 = complete kill) at 31 g/ha: 10%
[10]; [18]
  plant injury at 62 g/ha: 10%
[10]; [19]
  plant injury at 125 g/ha: 20%
[11]; 16 g ai/ha, scale 0 to 100
  pest or weed control at 16 g/ha: 10%
[11]; 31 g ai/ha, scale 0 to 100
  pest or weed control at 31 g/ha: 10%
[11]; [18]
  pest or weed control at 62 g/ha: 15%
[11]; [19]
  pest or weed control at 125 g/ha: 15%
[12]; 16 g ai/ha, scale 0 to 100
  pest or weed control at 16 g/ha: 70%
[12]; 31 g ai/ha, scale 0 to 100
  pest or weed control at 31 g/ha: 60%
[12]; [18]
  pest or weed control at 62 g/ha: 80%
[12]; [19]
  pest or weed control at 125 g/ha: 98%
[13]; 16 g ai/ha, scale 0 to 100
  pest or weed control at 16 g/ha: 95%
[13]; 31 g ai/ha, scale 0 to 100
  pest or weed control at 31 g/ha: 95%
[13]; [18]
  pest or weed control at 62 g/ha: 100%
[13]; [19]
  pest or weed control at 125 g/ha: 100%
[14]; 16 g ai/ha, scale 0 to 100
  pest or weed control at 16 g/ha: 75%
[14]; 31 g ai/ha, scale 0 to 100
  pest or weed control at 31 g/ha: 65%
[14]; [18]
  pest or weed control at 62 g/ha: 70%
[14]; [19]
  pest or weed control at 125 g/ha: 70%
[15]; 16 g ai/ha, scale 0 to 100
  pest or weed control at 16 g/ha: 0%
[15]; 31 g ai/ha, scale 0 to 100
  pest or weed control at 31 g/ha: 5%
[15]; [18]
  pest or weed control at 62 g/ha: 5%
[15]; [19]
  pest or weed control at 125 g/ha: 10%
[16]; 16 g ai/ha, scale 0 to 100
  plant injury at 16 g/ha: 50%
[16]; 31 g ai/ha, scale 0 to 100
  plant injury at 31 g/ha: 50%
[16]; [18]
  plant injury at 62 g/ha: 50%
[16]; [19]
  plant injury at 125 g/ha: 60%
[17]; 16 g ai/ha, scale 0 to 100
  plant injury at 16 g/ha: 0%
[17]; 31 g ai/ha, scale 0 to 100
  plant injury at 31 g/ha: 0%
[17]; 62 g ai/ha, scale 0 to 100 (0 no effect, 100 complete control), read-out: Wheat plant response rating
  plant injury at 62 g/ha: 5%
[17]; [19]
  plant injury at 125 g/ha: 5%
